How the values were obtained:
[1] = test system: E.G7-OVA (OVA-expressing EL4 lymphoma) tumors; assay: Tumor challenge: OVA vaccine with adjuvant in E.G7-OVA tumor bearing mice; type: in vivo, C57BL/6 mice; details: Days 7, 14; for tumor growth suppression compared with the control group (PBS): 100 μg OVA with or without 50 μg adjuvant
Experimental: Female C57BL/6 mice 6-8 weeks of age obtained from NLAC Taiwan. Mice were injected s.c. with 200 μL of 1.5*10^6 E. G7-OVA (OVA-expressing EL4 lymphoma) cells in PBS. Tumor volumes were measured at regular intervals using a caliper and calculated by the following formula: tumor volume (mm^3)=(long diameter)*(short diameter)^2*0.52. When the average tumor volume reached […] (day 7), 100 μL of 100 μg OVA in PBS with or without 50 μg compound 56, alum, Qs-21 and GPI0100 was injected s.c. around the tumor. PBS (200 μL) was used as a control.
A mouse-vaccination model was applied with an antigen OVA to evaluate anti-tumor efficacy. […] The evaluation of compound 56, and positive control groups (alum, Qs-21 and GPI-0100) anti-tumor efficacy were analyzed by caliper.

[2] = test system: SARS-CoV-2 spike protein; assay: ELISA of serum SARS-CoV-2-specific IgG after vaccination with spike protein and adjuvant; type: in vivo, C57BL/6 mice
[3] = test system: memory T cells (low CD62L, high CD44); assay: Flow cytometric analysis of memory T cells (CD62L low, CD44 high) in splenocytes of vaccinated mice; type: in vivo, C57BL/6 mice; details: one week post-third dose
Experimental: C57BL/6 mice were obtained from NLAC Taiwan. Mice between 4 and 8 weeks of age were vaccinated with 100 μL via the subcutaneous (SC) route and one dose per week for three weeks. Mice was sacrificed one week after the third vaccination, serum and splenocytes were harvested.
Spleen tissue was isolated from mice and processed into single cell suspensions using PP micro centrifuge sample pestle. Splenocytes were seeding on 6 well plate at 2×10^7/2 mL, cultivation for 2 h in a CO2 incubator. After 2 h, stimulate with or without E7-peptide for 2 hours at 37° C., then treat cell with protein transport inhibitor Monensin (Invitrogen, Cat. no. 00-4505-51) and Brefeldin (Invitrogen, Cat. no. 00-4506-51) for 4 hours at 37° C. Afterward, cells were harvest then washed twice with PBS and then stained for surface CD3 (BioLegend, Cat. no. 100222), CD4 (BioLegend, Cat. no. 100540), CD8 (Invitrogen, Cat. no. 11-0081-86), CD44 (BioLegend, Cat. no. 103008), CD62L (BioLegend, Cat. no. 104412) for 30 minutes at 4° C. After washing, cells were fixed for 30 minutes at room temperature using IC fixation buffer (Invitrogen, Cat. no. 00-8222-49), then cells were washed in permeabilization buffer (Invitrogen, Cat. no. 00-8333-56) and stained with IFNγ antibody (Invitrogen, Cat. no. 48-7311-82), IL-2 antibody (Invitrogen, Cat. no. 25-7021-82) and TNFα antibody (Invitrogen, Cat. no. 48-7321-82). One point five million cells events were acquired on the Backman Coulter Gallions. Flow data were analyzed using Kaluza software (ver. 1.2). Populations were first gated on viable mononuclear cell using forward and side scatter, then gated on CD3^+/CD4^+ or CD3^+/CD8^+ T cells. Next, sub-gated CD62L^−/CD44^+ memory T cells. Subsequently, sub-gated on either CD4^+/IFNγ, CD8^+/IFNγ^+, CD4^+/IL-2^+, CD8^+/IL-2^+, CD4/TNFα^+ and CD8^+/TNFα^+ double-positive cells.
Two adhesion molecules associated with differentiating naive and activated/memory T cells are CD62L (L-selectin) and CD44 (H-CAM). […] Flow-cytometric analysis (individual mice) of T-cells as frequency of viable CD8^+ or CD4^+ splenocytes expressing IFN-γ, TNF-α, or IL-2. Cytokine positivity was determined.

[4] = test system: PEK antigen (PE-E7-K3)-specific cytokine-secreting splenocytes; assay: ELISpot of IFNγ and IL-2 production by splenocytes of mice vaccinated with PEK antigen plus saponin adjuvant; type: in vivo, C57BL/6 mice; details: 50 μg saponin + PEK 100 μg, s.c.; splenocytes one week after third dose
[5] = test system: Female BALB/c mice; assay: Acute toxicity with increased dose of saponin (survival, weight change, spleen and hepato somatic index); type: in vivo
Excerpt: FIG. 8 (A) The percentage of median weight change of mice in 5 days. The values are presented as means±S.E.M. (n=5). (B) Hepato somatic index and (C) Spleen somatic index. The values are presented as means±S.E.M. (n=5). The percentage of median weight change of mice which was received increased dose of saponin adjuvant 56 was all less than 5%. The spleen somatic index and hepato somatic index in all experimental group were no change with compare to control group.
Acute toxicity was examined with increased dose of saponin 56 form 100 μg to 1000 μg. The result was presented as the number of surviving animal per group of 5 mice (Female BALB/c mice, 9 weeks) in 7 days. […] (FIG. 8)
The results represent in FIG. 8. […] The spleen somatic index and hepato somatic index in all experimental group were no change with compare to control group.

[6] = test system: PR8 virus; assay: Influenza challenge: NP peptide vaccine with compound 56, then live PR8 virus infection; type: in vivo, C57BL/6 mice; details: NPI/II plus compound 56 (50 μg s.c. or 30 μg i.n.); two vaccinations; 110 PFU PR8
Experimental: Female C57BL/6 mice 6-8 weeks of age were immunized through either s.c. injection with 100p of vaccines or the intranasal route with 30 μl of vaccines. All vaccine liquids were freshly prepared and diluted with 0.5% Tween 20 PBS. Vaccines used for the subcutaneous injection contained immunogens NP366-374/NP311-325 peptides, alone or combined with compound 56 ([…]). Vaccines used for the i.n. route contained immunogens alone or with compound 56 (30 μg). After two times vaccination, mice were infected with 110 plaque-forming units (PFU) of live PR8 virus by intronasal.
A mouse-vaccination model was applied with an antigen […] to evaluate anti-influenza efficacy. Five mice per group were immunized two times with compound 56 and NPI/II. After two times vaccination, mice were infected with 110 plaque-forming units (PFU) of live PR8 virus by intronasal.

Row | Compound | tumor growth suppression compared with the control group (PBS) [1] | cytokine positive CD4+ T-cells [3] | frequency of CD8+ T-cells positive for IFN-γ or TNF-α as compared to mice vaccinated with GPI-0100 [3] | inducing IL-2 (ELISpot) [4] | secretion of cytokines IFNγ (ELISpot) compared with GPI0100 [4] | other results
1 | Qs-21 [reference compound] | significant tumor growth suppression effect |  |  |  |  | 
2 | OVA: antigen OVA used in the tumor vaccination model | slight tumor growth suppression at first |  |  |  |  | 
3 | CC1O[C@@H](OC(=O)[C@]23CCC(C)(C)CC2C2=CCC4C5(C)CC[C@H](O[C@@H]6OC(C(=O)NCCCCCCCCc7ccc(Oc8ccccc8)cc7)[C@@H](O)C(O)C6O)C(C)(C=O)C5CCC4(C)C2(C)CC3O)C(O[C@@H]2OC(C)[C@H](O[C@@H]3OC[C@@H](O)C(O)C3O)C(O)C2O)C(O)[C@H]1O (stereo partly drawn) [Compound 56, 3-O—(N-(8-(4-Phenoxyhenyl)octyl)-β-D-glucopyranosyluronamide)-28-O-(β-D-xylopyranosyl-(1→4)-α-L-rhamnopyranosyl-(1→2)-β-D-fucopyranosyl) quillaic ester] | significant tumor growth suppression effect | no cytokine positive CD4^+ T-cells were detected | higher frequency | moderate | three to four times more | survival rate of tumor bearing mice ([1]; 100 μg OVA + 50 μg adjuvant): highest survival rate; increase of antibody titer ([2]; SARS-CoV-2 (2 μg) + Compound 56 (50 μg) vs SARS-CoV-2 (10 μg) + Alum (10 μg), only 20% of antigen): 1000 fold; level of SARS-CoV-2-specific IgG antibody production ([2]; SARS-CoV-2 (2 μg) + Compound 56 (50 μg), s.c.): highest level of antibody production; abnormality on activity and diet behavior ([5]; 100 μg to 1000 μg, 7 days): no obvious abnormality; survival in acute toxicity test ([5]; 100 μg to 1000 μg, 7 days): all of the mice were survive; number of surviving animal per group of 5 mice ([5]; Dose 100 μg, 7 days): 5/5; number of surviving animal per group of 5 mice ([5]; Dose 200 μg, 7 days): 5/5; number of surviving animal per group of 5 mice ([5]; Dose 500 μg, 7 days): 5/5; number of surviving animal per group of 5 mice ([5]; Dose 1000 μg, 7 days): 5/5; hepato somatic index compared to control group ([5]; all experimental groups, n=5): no change; spleen somatic index compared to control group ([5]; all experimental groups, n=5): no change; percentage of median weight change of mice ([5]; increased dose of saponin adjuvant, 5 days, n=5): less than 5%; survival rate following PR8 infection compared to NP I/II peptides alone [6]: higher survival rate
4 | CC1O[C@@H](OC(=O)[C@]23CCC(C)(C)CC2C2=CCC4C5(C)CC[C@H](O[C@@H]6OC(C(=O)NCCCCCCCCc7ccc(N8CCOCC8)cc7)[C@@H](O)C(O)C6O)C(C)(C=O)C5CCC4(C)[C@]2(C)CC3O)C(O[C@@H]2OC(C)[C@H](O[C@@H]3OC[C@@H](O)C(O)C3O)C(O)C2O)C(O)[C@H]1O (stereo partly drawn) [Compound 62, 3-O—(N-(8-(4-morpholinophen-1-yl)octyl)-β-D-glucopyranosyluronamide)-28-O-(β-D-xylopyranosyl-(1→4)-α-L-rhamnopyranosyl-(1-2)-β-D-fucopyranosyl) quillaic ester] |  | no cytokine positive CD4^+ T-cells were detected | higher frequency |  |  | 
5 | CC1O[C@@H](OC(=O)[C@]23CCC(C)(C)CC2C2=CCC4C5(C)CC[C@H](O[C@@H]6OC(C(=O)NCCCCCCCCc7ccc(Oc8ccccc8)cc7)[C@@H](O)C(O)C6O)C(C)(C=O)C5CCC4(C)[C@]2(C)CC3O)C(O[C@@H]2OC(C)[C@H](O[C@@H]3OC[C@@H](O)C(O)C3O)C(O[C@@H]3OC(CO)[C@@H](O)C(O)C3O)C2O)C(O)[C@H]1O (stereo partly drawn) [Compound 79, 3-O—(N-(8-(4-Phenoxyhenyl)octyl)-β-D-glucopyranosyluronamide)-28-O-(β-D-glucopyranosyl-(1→3)-(β-D-xylopyranosyl-(1-4))-α-L-rhamnopyranosyl-(1→2)-β-D-fucopyranosyl) quillaic ester] |  | no cytokine positive CD4^+ T-cells were detected | higher frequency | moderate | three to four times more | 
6 | Alum [reference compound] | slight tumor growth suppression at first |  |  |  |  | 

From patent publication US12419952B2, “Saponin conjugate and vaccine or pharmaceutical composition comprising the same” (priority 2019, dated 2025)
